Consider twelve compounds from paper PMC4214760, “Host Cofactors and Pharmacologic Ligands Share an Essential Interface in HIV-1 Capsid That Is Lost upon Disassembly” (PLoS Pathogens, 2014).

“Also recorded” adds a separate entry of the source. Like-named read-outs stand apart in the source and are kept apart here. Ends that are not written are not given here.

In test [1] the target is T1, HIV-1 CA hexamer (Human immunodeficiency virus type 1 group M subtype B, UniProt P12493, A146C/E177C/M317A/W316A).
T1 construct: produced by assembly of recombinant CA containing four amino acid substitutions; made in house
The test can be described thus: biochemical. It counts as binding.
Method: (§1) Hexamer protein was dialysed against ITC buffer (50 mM TRIS pH 7.4, 150 mM NaCl) for experiments using intact hexamer, or ITC buffer containing 1 mM DTT for experiments with monomerized hexamer. The monomeric status of hexamer dialysed against buffer containing DTT was confirmed by size exclusion chromatography. Peptides were dissolved in the same buffer as hexamer; NUP153 peptides were first dissolved in DMSO to a concentration of 8 mM before diluting in buffer. Drugs were dissolved in DMSO to a concentration of 5 mM, before diluting in buffer. In all cases, hexamer (in the syringe) was titrated into the peptide or drug ligand (in the cell), with the exception of the competition experiments, whereby peptide (400 µM) was titrated into hexamer (30 µM) in the presence of drug (100 µM). Typical concentrations used were 600–800 µM hexamer titrated against 60–80 µM peptide unless indicated otherwise, and 200 µM hexamer titrated against 30 µM drug. ITC experiments were conducted on a MicroCal ITC-200, and data analyzed using Origin data analysis software (MicroCal).

In the next test the target is T2, monomeric HIV-1 CA (Human immunodeficiency virus type 1 group M subtype B, UniProt P12493, A146C/E177C/M317A/W316A).
T2 construct: produced by assembly of recombinant CA containing four amino acid substitutions; made in house
Put plainly: ITC binding to monomeric CA (hexamer monomerized with 1 mM DTT).

Test [2] deals with VSV-G pseudotyped GFP-encoding HIV-1 vector. It counts as cell-based.
In test [3] the test system is HIV-1 reverse transcription. It counts as cell-based.
Test [4] has as its target T1, HIV-1 CA hexamer. The test can be described thus: ITC competition: cofactor peptide titrated into hexamer in the presence of drug. It counts as binding.
Method: as §1
Setting [5] is: read-out: Kd (approximate), hexamer binding of CPSF6 and NUP153 mutant peptides, ITC, Hex 0.76-1.122 mM into peptide 0.076-0.112 mM, NB = no binding detectable.

Method for monomeric HIV-1 CA: as §1

For PVLFDGQPFGQPPLG [CPSF6pep P317D], at HIV-1 CA hexamer [1] (setting [5]), the Kd is more than 700 µM.
For PF74, on HIV-1 CA hexamer [1], the “Fold higher affinity to hexamer than BI-2” value is reported as 10 fold; the “Fold increase in affinity to hexamer compared with monomeric CA” value was found to be 22 fold; the “N (stoichiometry), binding to HIV-1 hexamer” value amounted to 0.7; the “ΔH, binding to HIV-1 hexamer” value is on record as -9.02 kcal/mol. On HIV-1 CA hexamer [1], the “ΔS, binding to HIV-1 hexamer” value was 1.20 (cal/mol)/deg. At monomeric HIV-1 CA, the “N (stoichiometry), binding to monomeric CA” value amounted to 0.7; the “ΔH, binding to monomeric CA” value is on record as -16.1 kcal/mol; the “ΔS, binding to monomeric CA” value was -29.0 (cal/mol)/deg. Besides, in test [2], the “Reversal of inhibition of infection on wash out” value is given as “completely; also recorded: partially” and the “Time post-infection by which almost all efficacy was lost when addition was delayed” value is not above 10 h. Further, the “Reversibility of block to reverse transcription on wash out” value in test [3] is reported as “largely irreversible”. For the same compound, at HIV-1 CA hexamer [4], the “Competition with CPSF6 peptide for binding to hexamer” value is recorded as “inhibit CPSF6 binding to hexamer” and the “Competition with NUP153 peptide for binding to hexamer” value was “prevent NUP153 binding to hexamer”.
In turn, TNNSPAGVFTFGANSST [Nup153pep S1412A] returned a Kd at HIV-1 CA hexamer [1] of approximately 130 µM.
As for `CN(C(=O)[C@H](Cc1ccccc1)NC(=O)Cc1ccoc1)c1ccccc1` [PF74_4], the “Fold reduction in affinity to hexamer relative to PF74” value on HIV-1 CA hexamer [1] (ITC) is 94 fold.
On the same count and under the same terms, to `CN(C(=O)[C@H](Cc1ccccc1)NC(=O)Cc1ccsc1)c1ccccc1` [PF74_5] belongs 54 fold.
On to PVLFPGQPAGQPPLG [CPSF6pep F321A], for which the Kd at HIV-1 CA hexamer [1] (setting [5]) was more than 700 µM.
Same read-out and setting: the figure for TNNSPSGVATFGANSST [Nup153pep F1415A] is more than 700 µM.
For the compound `CN(C(=O)[C@H](Cc1ccccc1)NC(=O)Cc1cc[nH]c1)c1ccccc1` [PF74_3], the Kd on HIV-1 CA hexamer [1] was 5.5 µM. Also, the “Fold reduction in affinity to hexamer relative to PF74” value on HIV-1 CA hexamer [1] (ITC) was determined as 46 fold.
Consider PVLFPRQPFGQPPLG [CPSF6pep G318R], for which the Kd on HIV-1 CA hexamer [1] (setting [5]) is more than 700 µM.
Turning to TNNSPSGVFAFGANSST [Nup153pep T1416A], the Kd on HIV-1 CA hexamer [1] (setting [5]) is more than 700 µM.
For `CN(C(=O)[C@H](Cc1ccccc1)NC(=O)CC1CCOC1)c1ccccc1` (stereo partly shown) [PF74_6], at HIV-1 CA hexamer [1] (ITC), the “Fold reduction in affinity to hexamer relative to PF74” value was more than 1000 fold.
In the case of TNNSPSGVFTAGANSST [Nup153pep F1417A], at HIV-1 CA hexamer [1] (setting [5]), the Kd was more than 700 µM.

The term Kd denotes a measure of binding affinity in units of concentration.
